This is an account of results in US8697690B2, “Isoindolone M1 receptor positive allosteric modulators” (Merck Sharp & Dohme Corp., priority 2010, dated 2014).

pEC50: −log10 of the molar value.

The assay deals with T1, acetylcholine muscarinic M1 receptor (Homo sapiens, UniProt P11229).
T1 construct: expressed in transfected cells; host or cells: CHOnfat cells (CHO with NFAT reporter background), Geneticin-selected
T1 sequence (P11229 1-460): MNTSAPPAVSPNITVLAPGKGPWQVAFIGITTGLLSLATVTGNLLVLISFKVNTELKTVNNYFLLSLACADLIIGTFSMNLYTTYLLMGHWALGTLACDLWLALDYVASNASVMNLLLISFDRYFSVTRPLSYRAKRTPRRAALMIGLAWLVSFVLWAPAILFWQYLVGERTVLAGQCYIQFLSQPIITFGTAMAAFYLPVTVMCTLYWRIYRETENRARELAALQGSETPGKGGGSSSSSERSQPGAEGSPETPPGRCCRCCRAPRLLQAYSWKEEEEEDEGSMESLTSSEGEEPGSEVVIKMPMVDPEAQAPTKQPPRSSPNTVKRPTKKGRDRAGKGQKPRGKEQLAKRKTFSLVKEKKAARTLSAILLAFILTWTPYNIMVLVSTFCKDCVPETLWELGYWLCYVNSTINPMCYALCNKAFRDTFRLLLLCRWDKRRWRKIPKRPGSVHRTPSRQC
The experiment in a line: muscarinic FLIPR assay: intracellular calcium in CHOnfat/hM1 cells, potentiation of EC20 acetylcholine. Format: cell-based. As to conditions: IP = inflection point calculated from FLIPR values, 4 min preincubation, then EC20 acetylcholine (3 nM final). The protocol:
The assay studies the effect of one or several concentrations of test compounds on basal or acetylcholine-stimulated Ca^2+ levels using FLIPR.
Compounds are prepared and subjected to a preincubation period of 4 min. Thereafter, a single EC20 concentration of acetylcholine is added to each well (3 nM final). The intracellular Ca^2+ level of each sample is measured and compared to an acetylcholine control to determine any modulatory activity.
Cells: CHOnfat/hM1, hM2, hM3 or hM4 cells are plated 24 hr before the assay at a density of 18,000 cells/well (100 μL) in a 384 well plate. CHOnfat/hM1 and CHOnfat/hM3 Growth Medium: 90% DMEM (Hi Glucose); 10% HI FBS; 2 mM L-glutamine; 0.1 mM NEAA; Pen-Strep; and 1 mg/ml Geneticin, are added. For M2Gqi5CHOnfat and M4Gqi5CHOnfat cells, an additional 600 ug/ml hygromycin is added.
Equipment: 384 well plate, 120 μL addition plate; 96-well Whatman 2 ml Uniplate Incubator, 37° C., 5% CO2; Skatron EMBLA-384 Plate Washer; Multimek Pipetting System; Genesis Freedom 200 System; Mosquito System; Temo Nanoliter Pipetting System; and FLIPR^384 Fluorometric Imaging Plate Reader System are used.
Buffers. Assay Buffer: Hanks Balanced Salt Solution, with 20 mM Hepes, 2.5 mM Probenecid (Sigma P-8761) first dissolved in 1 N NaOH, 1% Bovine Serum Albumin (Sigma A-9647). Dye Loading Buffer: Assay Buffer plus 1% Fetal Bovine Serum and Fluo-4AM/Pluronic Acid Mixture. 2 mM Fluo-4AM ester stock in DMSO (Molecular Probes F-14202) Concentration of 2 μM in buffer for a final concentration of 1 μM in Assay. 20% Pluronic Acid Solution stock, with concentration of 0.04% in Buffer, 0.02% in Assay.
65 μL of 2 mM Fluo-4AM are mixed with 130 μL of 20% Pluronic Acid. The resulting solution and 650 μL FBS is added to the assay buffer for a total volume of 65 mL. Positive Controls: 4-Br-A23187: 10 mM in DMSO; final concentration […]. Acetylcholine: 10 mM in water, working stock at both 20 μM and 30 μM in assay buffer, final concentration of 10 μM. This is used to check the maximum stimulation of the CHOK1/hM1 cells. 20 μM (2×) acetylcholine is added in the preincubation part of the assay, and the 30 μM (3×) stock is added in the second part. (EC20)Acetylcholine: 10 mM in water, working stock of 9 nM (3×), and final concentration in assay is 3 nM. This is used after the preincubation with test compounds. Addition of the EC20 Acetylcholine to each well with a test compound will ascertain any modulator activity. 24 wells contain 3 nM Acetylcholine alone as a control.
Determining Activity of Putative Compounds:
Screening Plate Compounds are titrated in 96-well plates (columns 2-11), 100% DMSO, started at a concentration of 15 mM (150× stock concentration), and 3-fold serial dilutions using Genesis Freedom200 System. Four 96-well plates are combined into a 384-well plate using Mosquito Nanoliter Pipetting System by transferring 1 μl of serial diluted compounds to each well, and 1 mM acetylcholine (100× stock concentration) were added as a control. Using Temo, 49 μl assay buffer is added to each well of the 384-well plate right before assay.
In a 96-well Whatman 2 ml Uniplate, 9 nM Acetylcholine (3×) is pipetted into wells corresponding to the screening compounds, and into control wells. The 30 μM acetylcholine control (3×) is added into control wells, and the 3× agonist plate is transferred into a 384 well plate.
Cells are washed three times with 100 μL of buffer, leaving 30 μL of buffer in each well. Using Multimek, 30 μL of Dye Loading Buffer is added into each well and incubated at 37° C., 5% CO2 for up to one hr.
After 60 min, the cells are washed three times with 100 μL of buffer, leaving 30 μL of buffer in each well. The cell plate, screening plate, and agonist addition plates are placed on the platform in the FLIPR and the door closed. A signal test to check background fluorescence and basal fluorescence signal is performed. Laser intensity is adjusted if necessary. […]

As to `O=C1c2cc(Cc3ccc(Cl)nc3)c3ccccc3c2CN1C1C=CCCC1` (stereo not drawn) [Example 5, 5-[(6-Chloropyridin-3-yl)methyl]-2-cyclohex-2-en-1-yl-1,2-dihydro-3H-benzo[e]isoindol-3-one], the pEC50 was 5.61. Then `Cc1ccc(Cc2cc3c(c4ccccc24)CN([C@H]2CCCC[C@@H]2O)C3=O)cn1` [Example 2, 2-[(1S,2S)-2-Hydroxycyclohexyl]-5-[(6-methylpyridin-3-yl)methyl]-1,2-dihydro-3H-benzo[e]isoindol-3-one], with 7.74. To `O=C1c2nc(Cc3ccc(Cl)nc3)c3ccccc3c2CN1[C@H]1CCCC[C@@H]1O` (racemic) [Example 16, (±)-5-[(6-Chloropyridin-3-yl)methyl]-2-[trans-2-hydroxycyclohexyl]-1,2-dihydro-3H-pyrrolo[3,4-c]isoquinoline-3-one] belongs 7.31; to `O=CCC1c2c(cc(Cc3ccc(Cl)nc3)c3cccnc23)C(=O)N1[C@H]1CCCC[C@@H]1O` (stereo partly drawn) [Example 22, {5-[(6-Chloropyridin-3-yl)methyl]-8-[(1S,2S)-2-hydroxycyclohexyl]-7-oxo-8,9-dihydro-7H-pyrrolo[3,4-h]quinolin-9-yl}acetaldehyde], 7.82; to `CC1c2c(cc(Cc3ccc(Cl)nc3)c3ccccc23)C(=O)N1c1ccccc1F` (racemic) [Example 15, (±)-5-[(6-Chloropyridin-3-yl)methyl]-2-(2-fluorophenyl)-1-methyl-1,2-dihydro-3H-benzo[e]isoinol-3-one], 6.18. `COc1ccc(Cc2cc3c(c4ccccc24)CN([C@H]2CCCC[C@@H]2O)C3=O)cc1` [Example 1, 2-[(1S,2S)-2-Hydroxycyclohexyl]-5-(4-methoxybenzyl)-1,2-dihydro-3H-benzo[e]isoindol-3-one]: the pEC50 was 7.28. Regarding `COc1ccc(Cc2cc3c(c4ncccc24)C(C)(C)N([C@H]2CCCC[C@@H]2O)C3=O)cn1` [Example 18, 8-[(1S,2S)-2-Hydroxycyclohexyl]-5-[(6-methoxypyridin-3-yl)methyl]-9,9-dimethyl-8,9-dihydro-7H-pyrrolo[3,4-h]quinolin-7-one], the pEC50 is 6.51.

For `CC(=O)O[C@H]1COCC[C@@H]1N1Cc2c(cc(Cc3ccc(O)nc3)c3ccccc23)C1=O` [Example 12, 2-O-Acetyl-1,5-anhydro-3,4-dideoxy-3-{3-oxo-5-[(6-oxo-1,6-dihydroyridin-3-yl)methyl]-1,3-dihydro-2H-benzo[e]isoindol-2-yl)-L-threo-pentitol], the pEC50 was 5.28. Then `O=C1c2nc(Cc3ccc(-n4cccn4)nc3)c3ccccc3c2CN1[C@H]1CCCC[C@@H]1O` (racemic) [Example 17, (±)-2-[trans-2-Hydroxycyclohexyl]-5-{[6-(1H-pyrazol-1-yl)pyridine-3-yl]methyl}-1,2-dihydro-3H-pyrrolo[3,4-c]isoquinoline-3-one], with 7.54. Then `CSc1ccc(Cc2cc3c(c4ccccc24)CN([C@H]2CCCC[C@@H]2O)C3=O)cn1` [Example 10, 2-[(1S,2S)-2-Hydroxycyclohexyl]-5-{[6-(methylthio)pyridine-3-yl]methyl}-1,2-dihydro-3H-benzo[e]isoindol-3-one], with 7.54; and `N#Cc1ccc(Cc2cc3c(c4ccccc24)CN([C@H]2CCCC[C@@H]2O)C3=O)cn1` [Example 9, 5-({2-[(1S,2S)-2-Hydroxycyclohexyl]-3-oxo-2,3-dihydro-1H-benzo[e]isoindol-5-yl}methyl)pyridine-2-carbonitrile], with 7.89. To `C=Cc1ccc(Cc2cc3c(c4ccccc24)CN([C@H]2CCCC[C@@H]2O)C3=O)cn1` [Example 3, 2-[(1S,2S)-2-Hydroxycyclohexyl]-5-[(6-vinylpyridin-3-yl)methyl]-1,2-dihydro-3H-benzo[e]isoindol-3-one] belongs 7.96. On to `O=C1c2cc(Cc3ccc(OCc4ccccc4)nc3)c3cccnc3c2CN1[C@H]1CCCC[C@@H]1O` [Example 19], for which the pEC50 is 7.39. To `COc1ccc(Cc2cc3c(c4ccccc24)CN([C@H]2COCC[C@@H]2O)C3=O)cn1` [Example 11, 2-[(3S,4S)-4-Hydroxytetrahydro-2H-pyran-3-yl]-5-[(6-methoxypyridin-3-yl)methyl]-1,2-dihydro-3H-benzo[e]isoindol-3-one] belongs 7.28; to `O=C1c2cc(Cc3ccc(O)nc3)c3ccccc3c2CN1[C@H]1CCOC[C@@H]1O` [Example 13, 1,5-Anhydro-2,3-dideoxy-3-{3-oxo-5-[(6-oxo-1,6-dihydropyridin-3-yl)methyl]-1,3-dihydro-2H-benzo[e]isoindol-2-yl}-L-threo-pentitol], 7.70.

In the case of `O=C1c2cc(Cc3ccc(Cl)nc3)c3ccccc3c2CN1[C@H]1CCOC[C@@H]1O` [Example 8, 5-[(6-Chloropyridin-3-yl)methyl]-2-[(3R,4S)-3-hydroxytetrahydro-2H-pyran-4-yl]-1,2-dihydro-3H-benzo[e]isoindol-3-one], the pEC50 is 7.92. Then `CN(C)CCC1c2c(cc(Cc3ccc(Cl)nc3)c3cccnc23)C(=O)N1[C@H]1CCCC[C@@H]1O` (stereo partly drawn) [Example 23, 5-[(6-Chloropyridin-3-yl)methyl]-9-[2-(dimethylamino)ethyl]-8-[(1S,2S)-2-hydroxycyclohexyl]-8,9-dihydro-7H-pyrrolo[3,4-h]quinolin-7-one], with 7.00. Regarding `O=C1c2cc(Cc3ccc(Cl)nc3)c3cccnc3c2C(CC(O)CO)N1[C@H]1CCCC[C@@H]1O` (stereo partly drawn) [Example 21, 5-[(6-Chloropyridin-3-yl)methyl]-9-(2,3-dihydroxypropyl)-8-[(1S,2S)-2-hydroxycyclohexyl]-8,9-dihydro-7H-pyrrolo[3,4-h]quinolin-7-one], the pEC50 is 7.72.

In the case of `COc1ccc(Cc2cc3c(c4ccccc24)CN(c2ncccc2C(F)(F)F)C3=O)cn1` [Example 14, 5-[(6-Methoxypyridin-3-yl)methyl]-2-[3-(trifluoromethyl)pyridin-2-yl]-1,2-dihydro-3H-benzo[e]isoindol-3-one], the pEC50 is 6.84. To `O=C1CCC(Cc2cc3c(c4ncccc24)CN([C@H]2CCCC[C@@H]2O)C3=O)CN1` (stereo partly drawn) [Example 20, 8-[(1S,2S)-2-Hydroxycyclohexyl]-5-[(6-oxopiperidin-3-yl)methyl]-3,9-dihydro-7H-pyrrolo[3,4-h]quinolin-7-one] belongs 6.70; to `O=C1c2cc(Cc3ccc(Cl)nc3)c3ccccc3c2CN1[C@H]1CCCC[C@@H]1F` [Example 4, 5-[(6-Chloropyridin-3-yl)methyl]-2-[(2S)-2-fluorocyclohexyl]-1,2-dihydro-3H-benzo[e]isoindol-3-one], 6.51.

As usually defined, the pEC50 is the negative decadic logarithm of the EC50, by convention in mol/L.
